{
  "source": "patent US20090142363A1",
  "about": "“CYTOTOXIC T-CELL EPITOPE PEPTIDE AND USE THEREOF” (priority 2005, published 2009)",
  "key": {"[1]": {"system": "PBMCs of healthy adults reactive to the anti-HLA-A*24 antibody", "test": "Induction of specific CTLs from PBMCs, method for quantifying cells producing intracellular IFNγ", "type": "cell-based, human", "set-up": "key to specific CTL induction, cytokine quantification method: ∘: “open circle” indicates that the use of a candidate peptide enabled specific CTLs to be induced; x: “cross” indicates that specific CTLs was unable to be induced", "conditions": "for specific CTL induction confirmed by CD8-positive, IFNγ-positive cells versus HIV peptide: donor ID*24-8, FIG. 3a-d; for peptide-specific cytokine production in PBMCs derived from ten people with HLA-A*24 molecule: summary of Table 2", "description": "This induction method induces CTLs by adding peptides to culture media of PBMCs. Peptides are presented on antigen-presenting cells present among PBMCs, such as dendritic cells, B cells, macrophages, and certain types of T cells, whereby CTL precursor cells in PBMCs are stimulated to proliferate.\nPeripheral blood collected from healthy adults that were reactive to the anti-HLA-A*24 antibody was centrifuged at 3,000 rpm for 5 to 10 minutes. The resulting supernatant plasma was collected. The non-plasma portion was processed according to a conventional method to isolate PBMCs. The characteristic of the present method is the addition of several % of plasma to an induction medium. In the present invention, a favorable result was obtained by adding 5% plasma. The medium is prepared by adding appropriate additives and antibiotics to a medium commonly used for cell culture. The CTL induction medium used in the present invention was RPMI1640 Hepes modify (Sigam) supplemented with 2-mercapotethanol, L-glutamine, and the antibiotics streptomycin and penicillin. In addition to these, insulin, transferrin, selenious acid, pyruvic acid, human serum albumin, solution of non-essential amino acids, and the like may be added. 1 to 3×10^6 PBMCs were suspended in 1 to 2.5 ml of the culture medium. A candidate peptide was added to the cells at a concentration of 1 to 20 μg/ml. The concentration of peptide can be altered depending on the solubility of the peptide. The peptide was added at 10 μg/ml. After two days, IL-2 was added at a final concentration of 20 to 100 U/ml. Round-bottomed culture dishes that allow the exchange of carbon dioxide gas are preferably used to co-culture PBMCs with peptides. In the context of the present invention, 14-ml round-bottomed polypropylene tubes (Becton Dikinson) or 96-well U-bottomed cell culture microtest plates (Becton Dikinson) were used. The adenovirus-specific CTLs were confirmed after about two and four weeks of culture. The cells were stimulated again with the peptide at 10 μg/ml after about two weeks of culture. When the induction of adenovirus-specific CTLs was confirmed, the cells were further stimulated with peptide-pulsed antigen-presenting cells to establish CTL lines.\nApproximately 1/10 to all of the cells induced by the above-described method were transferred into 96-well U-bottomed cell culture microtest plates, and the peptide used for the induction was added thereto at a final concentration of 0.01 to 0.05 μg/ml. Then, an intracellular protein transport inhibitor (for example, brefeldin A, monensin, or such) was added, and the cells were cultured in a 5% CO2 incubator at 37° C. for 5 to 16 hours. After culture, the cells were washed, and phycoerythrin (PE)-labeled MHC-tetramer reagent and phycoerythrin-Cy5(PC5)-labeled CD8 antibody (Beckman Coulter) were added thereto. The resulting mixture was allowed to stand at room temperature for 15 to 30 minutes. After washing, the cells were fixed with 4% formaldehyde at 4° C. for 15 minutes and washed with an excess amount of washing solution. After membrane permeabilization treatment with 0.1% saponin, an FITC-labeled anti-IFNγ antibody (Beckman Coulter) was added, and reacted at room temperature for 15 to 30 minutes. After washing, the proportion of IFNγ-positive cells in T cells or MHC-tetramer reagent-positive cells was determined using a flow cytometer.\nPBMCs derived from ten people with HLA-A*24 molecule were tested using 10 types of peptides. […] Thus, these six types of candidate epitope peptides serve as adenovirus-specific CTL epitope peptides. Since the adenovirus-specific CTL epitope peptides have the HLA-A*24-binding motif, they are likely to be HLA-A*2402-restricted epitope peptides, which are carried by 60% or more of the Japanese people. In the context of the results described above, MHC-tetramer reagents were synthesized using five types of epitope peptides, and their utility was tested."}, "[2]": {"system": "CTLs with target cells expressing HLA-A*24 molecules", "test": "Confirmation of CTLs by ELISPOT assay (IFNγ spots)", "type": "cell-based, human", "conditions": "FIG. 4", "description": "A commercially available ELISPOT assay kit (for example, MABTECH Co.) may be purchased, and the assay can be performed according to the manufacturer's protocol. Alternatively, the assay may also be carried out by the following procedure. 96-well MultiScreen-HA plates (Millipore Co.) were coated with an anti-IFNγ monoclonal antibody (R&D Systems Co.) at 4° C. for overnight. Each well was washed with PBS. Target cells were plated into each well. Any cells expressing HLA-A*24 molecules on their surface can be used as the target cells. For example, T2-A24, a cultured cell which a gene of HLA-A*24 molecule is introduced into a 174CEM.T2 cell, can be used. Alternatively, EBV-infected LCLs expressing HLA-A*24 molecules on their surface can be used as the target cells. These target cells were added into each well with a candidate peptide for adenovirus-specific CTL epitopes or a negative control (HIV) peptide. The mixtures were allowed to stand at room temperature for 30 minutes. Then, an adequate number of CTLs were added, and the mixtures were cultured in a 5% CO2 incubator at 37° C. for 20 hours. CTLs that responded to the candidate epitope peptide secreted IFNγ during this culture period, and the IFNγ bound to the anti-IFNγ monoclonal antibody that was coated on the plates. After culturing was completed, the plates were washed with PBS containing 0.05% Tween-20. Then, an anti-IFNγ polyclonal antibody (Genzyme Co.) and peroxidase-labeled goat anti-rabbit IgG serum were allowed to react in this order at room temperature for 90 minutes each. Furthermore, 3-amino-9-ethylcarbasole (Sigma), a peroxidase substrate, and 0.1M sodium acetate buffer (pH 5.0) containing 0.015% H2O2 was added to each well, and the plates were incubated at room temperature for 40 minutes to visualize the IFNγ spots. The spots were counted under a stereomicroscope.\nThe spots were counted under a stereomicroscope, and were plotted on a graph."}},
  "note": "No end group written: not given here.",
  "data": [
    {"sequence": "VYSGSIPYL", "values": [
      {"measurement": "specific CTL induction, cytokine quantification method", "setting": "[1]; donor ID *24-1", "result": "x"},
      {"measurement": "specific CTL induction, cytokine quantification method", "setting": "[1]; donor ID *24-2", "result": "∘"},
      {"measurement": "specific CTL induction, cytokine quantification method", "setting": "[1]; donor ID *24-3", "result": "x"},
      {"measurement": "specific CTL induction, cytokine quantification method", "setting": "[1]; donor ID *24-5", "result": "x"},
      {"measurement": "specific CTL induction, cytokine quantification method", "setting": "[1]; donor ID *24-8", "result": "∘"},
      {"measurement": "specific CTL induction, cytokine quantification method", "setting": "[1]; donor ID *24-10", "result": "x"},
      {"measurement": "specific CTL induction, cytokine quantification method", "setting": "[1]; donor ID *24-11", "result": "x"},
      {"measurement": "specific CTL induction, cytokine quantification method", "setting": "[1]; donor ID *24-12", "result": "x"},
      {"measurement": "specific CTL induction, cytokine quantification method", "setting": "[1]; donor ID *24-13", "result": "x"},
      {"measurement": "specific CTL induction, cytokine quantification method", "setting": "[1]; donor ID *24-14", "result": "x"},
      {"measurement": "specific CTL induction confirmed by CD8-positive, IFNγ-positive cells versus HIV peptide", "setting": "[1]", "result": "induced specific CTLs"},
      {"measurement": "peptide-specific cytokine production in PBMCs derived from ten people with HLA-A*24 molecule", "setting": "[1]", "result": "induce cytokine production in a peptide-specific manner"},
      {"measurement": "IFNγ spots in ELISPOT assay compared with the negative control (HIV) peptide", "setting": "[2]", "result": "IFNγ spots were observed"}
    ]},
    {"sequence": "TYFNLGNKF [TYF]", "values": [
      {"measurement": "specific CTL induction, cytokine quantification method", "setting": "[1]; donor ID *24-1", "result": "x"},
      {"measurement": "specific CTL induction, cytokine quantification method", "setting": "[1]; donor ID *24-2", "result": "∘"},
      {"measurement": "specific CTL induction, cytokine quantification method", "setting": "[1]; donor ID *24-3", "result": "x"},
      {"measurement": "specific CTL induction, cytokine quantification method", "setting": "[1]; donor ID *24-5", "result": "x"},
      {"measurement": "specific CTL induction, cytokine quantification method", "setting": "[1]; donor ID *24-8", "result": "∘"},
      {"measurement": "specific CTL induction, cytokine quantification method", "setting": "[1]; donor ID *24-10", "result": "x"},
      {"measurement": "specific CTL induction, cytokine quantification method", "setting": "[1]; donor ID *24-11", "result": "x"},
      {"measurement": "specific CTL induction, cytokine quantification method", "setting": "[1]; donor ID *24-12", "result": "x"},
      {"measurement": "specific CTL induction, cytokine quantification method", "setting": "[1]; donor ID *24-13", "result": "x"},
      {"measurement": "specific CTL induction, cytokine quantification method", "setting": "[1]; donor ID *24-14", "result": "x"},
      {"measurement": "specific CTL induction confirmed by CD8-positive, IFNγ-positive cells versus HIV peptide", "setting": "[1]", "result": "induced specific CTLs"},
      {"measurement": "peptide-specific cytokine production in PBMCs derived from ten people with HLA-A*24 molecule", "setting": "[1]", "result": "induce cytokine production in a peptide-specific manner"},
      {"measurement": "IFNγ spots in ELISPOT assay compared with the negative control (HIV) peptide", "setting": "[2]", "result": "IFNγ spots were observed"}
    ]}
  ]
}
